Holding throughout (assay type): biochemical
For one assay, the target named is T1, Pim-1 (Homo sapiens, UniProt P11309).
T1 construct: purchased Invitrogen PV3503
Nature of the assay: Pim-1 kinase assay (Pim enzyme assays, Example A). To be noted: 1 mM ATP; read-out: Pim1 IC50. The method, then:
(§1) Pim-1 and Pim-3 kinase assays-20 μL reactions were run in white 384 well polystyrene plates dotted with 0.8 μL compound/DMSO in the assay buffer (50 mM Tris, pH 7.5, 0.01% Tween-20, 5 mM mgCl2, 0.01% BSA, 5 mM DTT), containing 0.05 μM Biotin-labeled BAD peptide substrate (AnaSpec 62269), 1 mM ATP, and […] (Pim-1, Invitrogen PV3503) or […] (Pim-3, Millipore 14-738) enzyme for 1 h at 25° C. Reactions were stopped by addition of 10 μL STOP Buffer (150 mM Tris, pH=7.5, 150 mM NaCl, 75 mM EDTA, 0.01% Tween-20, 0.3% BSA,) supplemented with Phospho-Bad (Ser 12) Antibody (Cell Signaling 9291) diluted 666-fold, and Streptavidin donor beads (PerkinElmer 6760002) along with Protein-A acceptor beads (PerkinElmer 6760137) at 15 μg/mL each. Supplementation of the STOP buffer with beads and stopping the reactions were done under reduced light. Prior to the stopping reactions STOP buffer with beads was preincubated for 1 h in the dark at room temperature. After stopping the reactions, plates were incubated for 1 h in the dark at room temperature before reading on a PHERAstar FS plate reader (BMG Labtech) under reduced light.

Assay [1] deals with T2, Pim2 (Homo sapiens, UniProt Q9P1W9).
T2 construct: purchased Invitrogen PV3649
Nature of the assay: Pim-2 kinase assay (Pim enzyme assays, Example A). As to conditions: 1 mM ATP; read-out: Pim2 IC50. The method, then:
(§2) Pim-2 kinase assay—20 μL reactions were run in white 384 well polystyrene plates dotted with 0.8 μL compound/DMSO in the assay buffer (50 mM Tris, pH 7.5, 0.01% Tween-20, 5 mM mgCl2, 0.01% BSA, 5 mM DTT), containing 0.05 μM Fluorescein-labeled CREBtide peptide substrate (Invitrogen PV3508), 1 mM ATP, and 1 nM enzyme (Invitrogen PV3649) for 2 h at 25° C. Reactions were stopped by addition of 10 μL TR-FRET Dilution Buffer (Invitrogen PV3574) with 30 mM EDTA and 1.5 nM LanthaScreen Tb-CREB pSer133 antibody (Invitrogen PV3566). After 30 min. incubation at room temperature, plates were read on a PHERAstar FS plate reader (BMG Labtech).

The target of another assay is T3, Pim-3 (Homo sapiens, UniProt Q86V86).
T3 construct: purchased Millipore 14-738
Nature of the assay: Pim-3 kinase assay (Pim enzyme assays, Example A). As to conditions: 1 mM ATP; read-out: Pim3 IC50. How it is done: as §1

The target in assay [2] is T2, Pim2. In words: Pim2 assay analogous to Example A performed under Km ATP conditions. As to conditions: Km ATP conditions rather than 1 mM ATP. How it is done: as §2
Although the above in vitro assays are conducted at 1 mM ATP compounds can also be evaluated for potency and in vitro activity against PIM targets utilizing Km conditions, where the concentration of ATP is set to the Km value and the assay is more sensitive to PIM inhibition activity.

pIC50: −log10 of the molar value.

T2 sequence (Q9P1W9 whole entry): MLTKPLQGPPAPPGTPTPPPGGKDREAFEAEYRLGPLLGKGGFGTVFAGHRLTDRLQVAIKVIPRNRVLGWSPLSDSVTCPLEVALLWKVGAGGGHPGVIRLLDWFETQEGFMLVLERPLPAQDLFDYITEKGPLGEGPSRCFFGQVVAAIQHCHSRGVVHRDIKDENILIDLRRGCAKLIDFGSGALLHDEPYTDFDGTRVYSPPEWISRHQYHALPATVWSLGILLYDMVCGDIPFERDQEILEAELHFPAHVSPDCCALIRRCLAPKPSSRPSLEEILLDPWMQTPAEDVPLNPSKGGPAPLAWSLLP
T1 sequence (P11309 whole entry): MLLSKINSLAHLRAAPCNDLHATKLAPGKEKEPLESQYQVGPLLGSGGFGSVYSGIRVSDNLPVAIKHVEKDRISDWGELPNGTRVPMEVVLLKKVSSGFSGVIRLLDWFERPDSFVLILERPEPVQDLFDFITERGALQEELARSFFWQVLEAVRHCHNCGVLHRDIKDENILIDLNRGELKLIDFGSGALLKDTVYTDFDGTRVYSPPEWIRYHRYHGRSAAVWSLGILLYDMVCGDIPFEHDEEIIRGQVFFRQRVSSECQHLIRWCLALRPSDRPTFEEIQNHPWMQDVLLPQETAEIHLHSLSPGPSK

As a reminder, the pIC50 is −log10 of the IC50, conventionally taken in molar units. Take `CCc1ccc2cc(N)c(C(=O)Nc3cnc4c(c3N3CCC[C@H](N)C3)CCC4O)nc2c1` (single isomer, unassigned) [22 isomer 1]: the pIC50 on Pim-1 is below 7.40; at Pim2 [1], below 5.70; at Pim-3, below 7.40; on Pim2 [2], 6.00 to 7.00.

Turning to `C[C@@H]1C[C@H](N)CN(c2ccncc2NC(=O)c2nc3cc(N4CCN(C)C(=O)C4)ccc3cc2N)C1` [Example 46, 3-Amino-N-{4-[(3S,5R)-3-amino-5-methylpiperidin-1-yl]pyridin-3-yl}-7-(4-methyl-3-oxopiperazin-1-yl)quinoline-2-carboxamide], the pIC50 on Pim-1 is at least 7.00; at Pim2 [1], 6.00 to 7.00; at Pim-3, at least 7.00.

`C[C@@H]1C[C@H](N)CN(c2ccncc2NC(=O)c2nc3cc(N4CCNC(=O)C4)ccc3cc2N)C1` [Example 47, 3-Amino-N-{4-[(3S,5R)-3-amino-5-methylpiperidin-1-yl]pyridin-3-yl}-7-(3-oxopiperazin-1-yl)quinoline-2-carboxamide]: the pIC50 on Pim-1 was at least 7.00; on Pim2 [1], 6.00 to 7.00; at Pim-3, at least 7.00.

For the compound `C[C@H]1CN(c2ccncc2NC(=O)c2nc3cc(N4CCN(C)C(=O)C4)ccc3cc2N)C[C@@H](N)[C@@H]1O` [Example 48, 3-Amino-N-{4-[(3R,4R,5S)-3-amino-4-hydroxy-5-methylpiperidin-1-yl]pyridin-3-yl}-7-(4-methyl-3-oxopiperazin-1-yl)quinoline-2-carboxamide], the negative logarithm of the IC50 (pIC50) on Pim-1, at Pim2 [1] and on Pim-3 was at least 7.00 in each case.

Regarding `C[C@H]1CN(c2ccncc2NC(=O)c2nc3cc(N4CCCCC4=O)ccc3cc2N)C[C@@H](N)[C@@H]1O` [Example 49, 3-Amino-N-{4-[(3R,4R,5S)-3-amino-4-hydroxy-5-methylpiperidin-1-yl]pyridin-3-yl}-7-(2-oxopiperidin-1-yl)quinoline-2-carboxamide], the values for the pIC50 at Pim-1, on Pim2 [1] and at Pim-3 were at least 7.00, 6.00 to 7.00 and at least 7.00, respectively.

With `C[C@@H]1C[C@H](N)CN(c2ccncc2NC(=O)c2nc3cc(N4CCOCC4=O)ccc3cc2N)C1` [Example 50, 3-Amino-N-{4-[(3S,5R)-3-amino-5-methylpiperidin-1-yl]pyridin-3-yl}-7-(3-oxomorpholin-4-yl)quinoline-2-carboxamide], the pIC50 at Pim-1 was at least 7.00; on Pim2 [1], 6.00 to 7.00; on Pim-3, at least 7.00.

`C[C@H]1CN(c2ccncc2NC(=O)c2nc3cc(N4CCOCC4=O)ccc3cc2N)C[C@@H](N)[C@@H]1O` [Example 51, 3-Amino-N-{4-[(3R,4R,5S)-3-amino-4-hydroxy-5-methylpiperidin-1-yl]pyridin-3-yl}-7-(3-oxomorpholin-4-yl)quinoline-2-carboxamide]: the values for the pIC50 at Pim-1, on Pim2 [1] and on Pim-3 were at least 7.00, 5.00 to 6.00 and at least 7.00, respectively.

Consider `C[C@H]1CN(c2ccncc2NC(=O)c2nc3cc(N4CCN(C)C(=O)C4)ccc3cc2N)C[C@@H](N)[C@H]1n1ccnn1` [Example 52, 3-Amino-N-{4-[(3R,4S,5S)-3-amino-5-methyl-4-(1H-1,2,3-triazol-1-yl)piperidin-1-yl]pyridin-3-yl}-7-(4-methyl-3-oxopiperazin-1-yl)quinoline-2-carboxamide], for which the pIC50 at Pim-1 is at least 7.00; at Pim2 [1], below 5.70; at Pim-3, at least 7.00.

Take `C[C@H]1CN(c2ccncc2NC(=O)c2nc3cc(C4CCOCC4)ccc3cc2N)C[C@@H](N)[C@H]1n1ccnn1` [Example 53, 3-Amino-N-{4-[(3R,4S,5S)-3-amino-5-methyl-4-(1H-1,2,3-triazol-1-yl)piperidin-1-yl]pyridin-3-yl}-7-(tetrahydro-2H-pyran-4-yl)quinoline-2-carboxamide]: the values for the pIC50 at Pim-1, on Pim2 [1] and at Pim-3 were at least 7.00, 5.00 to 6.00 and at least 7.00, respectively.

Consider `C[C@H]1CN(c2ccncc2NC(=O)c2nc3cc(N4CCN(C)CC4)ccc3cc2N)C[C@@H](N)[C@H]1n1ccnn1` [Example 54, 3-Amino-N-{4-[(3R,4S,5S)-3-amino-5-methyl-4-(1H-1,2,3-triazol-1-yl)piperidin-1-yl]pyridin-3-yl}-7-(4-methylpiperazin-1-yl)quinoline-2-carboxamide], for which the results for the pIC50 on Pim-1, on Pim2 [1] and on Pim-3 were at least 7.00, below 5.70 and at least 7.00, respectively.

For the compound `C[C@H]1CN(c2ccncc2NC(=O)c2nc3cc(N4CCOCC4)ccc3cc2N)C[C@@H](N)[C@H]1n1ccnn1` [Example 55, 3-Amino-N-{4-[(3R,4S,5S)-3-amino-5-methyl-4-(1H-1,2,3-triazol-1-yl)piperidin-1-yl]pyridin-3-yl}-7-morpholin-4-ylquinoline-2-carboxamide], the negative-log IC50 (pIC50) at Pim-1 is at least 7.00; at Pim2 [1], below 5.70; at Pim-3 it was at least 7.00.

On to `C[C@H]1CN(c2ccncc2NC(=O)c2nc3cc(C4CCN(C)CC4)ccc3cc2N)C[C@@H](N)[C@H]1n1ccnn1` [Example 56, 3-Amino-N-{4-[(3R,4S,5S)-3-amino-5-methyl-4-(1H-1,2,3-triazol-1-yl)piperidin-1-yl]pyridin-3-yl}-7-(1-methylpiperidin-4-yl)quinoline-2-carboxamide], for which the pIC50 at Pim-1 was at least 7.00; at Pim2 [1], 5.00 to 6.00; at Pim-3, at least 7.00.

For `CCc1ccc2cc(N)c(C(=O)Nc3cnccc3N3C[C@@H](N)[C@@H](n4ccnn4)[C@@H](C)C3)nc2c1` [Example 57, 3-Amino-N-{4-[(3R,4S,5S)-3-amino-5-methyl-4-(1H-1,2,3-triazol-1-yl)piperidin-1-yl]pyridin-3-yl}-7-ethylquinoline-2-carboxamide], the pIC50 was at least 7.00 on Pim-1, 6.00 to 7.00 at Pim2 [1] and at least 7.00 at Pim-3.

As for `CCc1ccc2cc(N)c(C(=O)Nc3cnccc3N3C[C@@H](N)[C@@H](NC(=O)OC)[C@@H](C)C3)nc2c1` [Example 58, Methyl [(3R,4S,5S)-3-amino-1-(3-{[(3-amino-7-ethylquinolin-2-yl)carbonyl]amino}pyridin-4-yl)-5-methylpiperidin-4-yl]carbamate], the pIC50 at Pim-1 was at least 7.00; on Pim2 [1], 6.00 to 7.00; at Pim-3 it was at least 7.00.

Take `COC(=O)N[C@@H]1[C@H](N)CN(c2ccncc2NC(=O)c2nc3cc(N4CCOCC4)ccc3cc2N)C[C@@H]1C` [Example 59, Methyl [(3R,4S,5S)-3-amino-1-(3-{[(3-amino-7-morpholin-4-ylquinolin-2-yl)carbonyl]amino}pyridin-4-yl)-5-methylpiperidin-4-yl]carbamate]: the negative-log IC50 (pIC50) on Pim-1 is at least 7.00; on Pim2 [1], 5.00 to 6.00; at Pim-3, at least 7.00.

On to `COC(=O)N[C@@H]1[C@H](N)CN(c2ccncc2NC(=O)c2nc3cc(N4CCN(C)CC4)ccc3cc2N)C[C@@H]1C` [Example 60, Methyl {(3R,4S,5S)-3-amino-1-[3-({[3-amino-7-(4-methylpiperazin-1-yl)quinolin-2-yl]carbonyl}amino)pyridin-4-yl]-5-methylpiperidin-4-yl}carbamate], for which the pIC50 at Pim-1 was at least 7.00; on Pim2 [1], 5.00 to 6.00; at Pim-3, at least 7.00.

For the compound `COC(=O)N[C@@H]1[C@H](N)CN(c2ccncc2NC(=O)c2nc3cc(C4CCOCC4)ccc3cc2N)C[C@@H]1C` [Example 61, Methyl {(3R,4S,5S)-3-amino-1-[3-({[3-amino-7-(tetrahydro-2H-pyran-4-yl)quinolin-2-yl]carbonyl}amino)pyridin-4-yl]-5-methylpiperidin-4-yl}carbamate], the pIC50 at Pim-1 was at least 7.00; at Pim2 [1] it was 6.00 to 7.00; at Pim-3, at least 7.00.

In the case of `COC(=O)N[C@@H]1[C@H](N)CN(c2ccncc2NC(=O)c2nc3cc(C4CCN(C)CC4)ccc3cc2N)C[C@@H]1C` [Example 62, Methyl {(3R,4S,5S)-3-amino-1-[3-({[3-amino-7-(1-methylpiperidin-4-yl)quinolin-2-yl]carbonyl}amino)pyridin-4-yl]-5-methylpiperidin-4-yl}carbamate], the pIC50 is at least 7.00 at Pim-1, 5.00 to 6.00 at Pim2 [1] and at least 7.00 at Pim-3.

The record behind these values is patent publication US9278950B2, “Bicyclic aromatic carboxamide compounds useful as Pim kinase inhibitors” (Incyte Corporation, priority 2013, dated 2016).
